Measurements reported in US8609414B2, “Isolation and growth of stem cells from hemangiomas” (priority 2007, dated 2013).

Test system: hemangioma tumor spheres
Conditions: DMEM/F12 + 50 μg/ml VEGF + NEAA
Experimental: Another key property of stem cells is their ability to differentiate into mature cells. To assess whether hemangioma tumor sphere cells are able to differentiate into mature cells, tumor cells were cultured in appropriate growth factors.

VEGF
differentiation of hemangioma tumor sphere cells into mature cells (72 hours): differentiated into the endothelial-like tissue
time to changes in cell morphology (phase-contrast microscopy): ≤ 24 hours
